Test results from the Kinase Knowledgebase extract (Sharma et al. 2016).

Legend:
PIK3CA = PIK3CA (UniProt P42336); assay: PI 3-Kinase Inhibition; settings: for inhibition: concentration not given here
PIK3CA (rat) = assay: Hexosaminidase Secretion Inhibition (RBL-2H3 cells); settings: rbl2h3

Sequence of PIK3CA (P42336 whole entry, looked up): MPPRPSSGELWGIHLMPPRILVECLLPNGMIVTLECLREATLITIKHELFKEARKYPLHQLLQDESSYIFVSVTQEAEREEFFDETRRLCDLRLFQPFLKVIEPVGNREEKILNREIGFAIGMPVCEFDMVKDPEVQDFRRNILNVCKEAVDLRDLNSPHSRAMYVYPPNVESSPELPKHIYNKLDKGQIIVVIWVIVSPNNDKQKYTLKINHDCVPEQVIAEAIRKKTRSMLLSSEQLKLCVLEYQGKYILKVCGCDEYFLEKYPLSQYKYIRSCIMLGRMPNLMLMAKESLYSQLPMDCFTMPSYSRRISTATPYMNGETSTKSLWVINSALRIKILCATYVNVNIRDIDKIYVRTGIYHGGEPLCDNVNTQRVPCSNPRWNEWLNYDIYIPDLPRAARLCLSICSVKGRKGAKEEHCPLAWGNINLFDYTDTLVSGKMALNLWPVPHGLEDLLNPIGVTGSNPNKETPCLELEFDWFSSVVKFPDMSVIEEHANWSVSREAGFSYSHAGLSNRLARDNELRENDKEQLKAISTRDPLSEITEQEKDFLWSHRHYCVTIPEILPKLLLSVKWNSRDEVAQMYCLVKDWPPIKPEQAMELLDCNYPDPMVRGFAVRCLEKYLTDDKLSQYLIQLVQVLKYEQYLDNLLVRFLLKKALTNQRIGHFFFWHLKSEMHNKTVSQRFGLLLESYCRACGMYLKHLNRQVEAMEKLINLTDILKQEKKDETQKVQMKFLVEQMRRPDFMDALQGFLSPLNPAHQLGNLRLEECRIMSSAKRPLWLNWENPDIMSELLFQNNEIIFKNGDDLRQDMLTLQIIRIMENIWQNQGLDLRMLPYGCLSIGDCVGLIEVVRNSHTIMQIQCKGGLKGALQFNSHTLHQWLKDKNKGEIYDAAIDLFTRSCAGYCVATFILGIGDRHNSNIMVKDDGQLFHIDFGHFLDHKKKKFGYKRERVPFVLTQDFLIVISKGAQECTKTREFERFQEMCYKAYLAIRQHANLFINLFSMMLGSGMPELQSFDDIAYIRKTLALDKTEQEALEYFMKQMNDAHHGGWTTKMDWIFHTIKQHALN

SMILES	inhibition (PIK3CA)	IC50 (PIK3CA)	IC50 (PIK3CA (rat))
CCCCCCCCCCCCCCCC(=O)OC[C@@H](COP(=O)(O)O[C@H]1[C@H](O)[C@@H](O)[C@H](O)[C@@H](CBr)[C@H]1O)OC(=O)CCCCCCCCCCCCCCC	60%	–	–
CCCCCCCCCCCCCCCC(=O)OC[C@@H](COP(=O)(O)O[C@H]1[C@H](O)[C@@H](O)[C@H](O)[C@@H](CO)[C@H]1O)OC(=O)CCCCCCCCCCCCCCC	85%	35 µM	–
CCCCCCCCCCCCCCCC(=O)OC[C@@H](COP(=O)(O)O[C@H]1[C@H](O)[C@@H](O)[C@H](O)[C@@H](CF)[C@H]1O)OC(=O)CCCCCCCCCCCCCCC	60%	–	–
O=c1cc(N2CCOCC2)oc2c(-c3ccccc3)cccc12	–	–	1.8 µM
CCCCCCCCCCCCCCCC(=O)OC[C@@H](COP(=O)(O)O[C@H]1[C@H](O)[C@@H](O)[C@H](O)[C@@H](CN)[C@H]1O)OC(=O)CCCCCCCCCCCCCCC	> 98%	20 µM	17 µM
CCCCCCCCCCCCCCCC(=O)OC[C@@H](COP(=O)(O)O[C@H]1[C@H](O)[C@@H](O)[C@H](O)[C@@H](CCl)[C@H]1O)OC(=O)CCCCCCCCCCCCCCC	60%	–	–
CCCCCCCCCCCCCCCC(=O)OC[C@@H](COP(=O)(O)O[C@H]1[C@H](O)[C@@H](O)[C@H](O)[C@@H](CI)[C@H]1O)OC(=O)CCCCCCCCCCCCCCC	60%	–	–
